Data published in patent US3965109A, “Certain aryl amino pyridines” (priority 1971, dated 1976).

Tests used:
[1] = tested on: Pseudomonas syringae; assay: Antibacterial agar test (B6); format: cell-based; details: 50 ppm; 5 days
[2] = tested on: Corynebacterium michiganense; assay: Antibacterial agar test (B2); format: cell-based; details: 50 ppm; 5 days
Experimental: (§1) This Example illustrates the activity of compounds used as the active ingredients of compositions according to the invention against a variety of plant bacterial diseases and fungal post-harvest saprophytic diseases. In a test for such activity, 5 milligrams of the compound to be tested was dissolved or suspended in 10 ml. of acetone and enough of this solution or suspension was added to 18 ml. of nutrient agar (for the bacterial diseases) or 16 ml. of 2% malt agar (for the fungal diseases) to give a final concentration of 50 parts per million of the compound under test. A streptomycin preparation (2 ml. containing 100 units per ml.) was added to the malt agar to prevent bacterial contamination of the fungal tests.
(§2) The agar preparations were dried overnight in Petri dishes and inoculated the following morning with the bacterial or fungal diseases using a multipoint inoculator. The antibacterial activity was assessed after 5 days and the antifungal activity after 6 days. The results of the tests are set out in Table 16 (anti bacterial activity) and Table 17 (antifungal activity). The results are graded as in Example 1 above.

[3] = tested on: Pieris brassicae (cabbage white caterpillars); assay: Pest toxicity test; format: in vivo; details: 0.1% by weight, 2 days
[4] = tested on: Tetranychus telarius (red spider mites, adults); assay: Pest toxicity test; format: in vivo; details: 0.1% by weight; French bean; 3 days
[5] = tested on: Phaedon cochleariae (mustard beetles); assay: Pest toxicity test; format: in vivo; details: in vivo
[6] = tested on: Tetranychus telarius (red spider mites, eggs); assay: Pest toxicity test; format: in vivo; details: 0.1% by weight; French bean; 3 days
[7] = tested on: Agriolimax reticulatus (slugs); assay: Molluscicidal activity test; format: in vivo, Agriolimax reticulatus (Mull); details: pellet with 4% by weight; 6 days; 10°C
Experimental: A weighed sample of the compound under test was dissolved in 0.5 c.c. of an ethanol and acetone mixture 50:50 v/v). The solution was diluted with 0.5 cc water and poured onto a calf feeding pellet in a glass Petri dish. The pellet was then air dried for 24 hours. The weight of compound used was chosen so that the dried pellet contained 4% by weight of the active ingredient. Two replicates each consisting of a plastic Petri dish containing a pellet, 2 slugs, and a moistened filter paper to maintain a high relative humidity were used in each test. The dishes were left in a cold room (10°C.) After 6 days the kill was assessed.
The slugs used were Agriolimax reticulatus (Mull), and they had been starved for 24 hours before the commencement of the tests.

[8] = tested on: Xanthomonas malvacearum; assay: Antibacterial agar test (B3); format: cell-based; details: 50 ppm; 5 days
Experimental: as §1, §2

[9] = tested on: Agrobacterium tumifaciens; assay: Antibacterial agar test (B1); format: cell-based; details: 50 ppm; 5 days
[10] = tested on: Aphis fabae; assay: Pest toxicity test; format: in vivo; details: 0.1% by weight; broad bean; 2 days
[11] = tested on: Uncinula necator (vine); assay: Fungicidal test against foliar disease D (foliage spray plus soil drench); format: in vivo; details: 100 ppm spray and drench; 10 days
[12] = tested on: Musca domestica (houseflies); assay: Pest toxicity test, contact test; format: in vivo; details: 0.1% by weight; milk/sugar; 2 days; flies sprayed directly
[13] = tested on: Streptomyces scabies; assay: Antibacterial agar test (B7); format: cell-based; details: 50 ppm; 5 days
[14] = tested on: Aedes aegypti (mosquito larvae); assay: Pest toxicity test; format: in vivo; details: for Mortality grading (kill): 0.01% by weight, water, 1 day
[15] = tested on: Plutella maculipennis (diamond back moth larvae); assay: Pest toxicity test; format: in vivo; details: in vivo
[16] = tested on: Aedes aegypti (mosquito adults); assay: Pest toxicity test; format: in vivo; details: 0.01% by weight; plywood; 1 day
[17] = tested on: Xanthomonas oryzae; format: cell-based; details: 50 ppm; 5 days
[18] = tested on: Plasmopara viticola (vine); assay: Fungicidal test against foliar disease C (foliage spray plus soil drench); format: in vivo; details: 100 ppm spray and drench; 10 days
[19] = tested on: Puccinia recondita (wheat); assay: Fungicidal test against foliar disease A (foliage spray plus soil drench); format: in vivo; details: 100 ppm spray and drench; 10 days
[20] = tested on: Erwinia carotovora; assay: Antibacterial agar test (B4); format: cell-based; details: 50 ppm; 5 days
[21] = tested on: Megoura viceae; assay: Pest toxicity test; format: in vivo; details: 0.1% by weight; broad bean; 2 days
[22] = tested on: Meloidogyne incognita (nematodes); assay: Pest toxicity test; format: in vivo; details: 0.01% by weight; water; 1 day
[23] = tested on: Piricularia oryzae (rice); format: in vivo; details: 100 ppm spray and drench; 7 days

Row | Compound | Mortality grading (kill) [3] | Mortality grading (kill) [4] | Mortality grading (kill) [5] | Mortality grading (kill) [6] | Mortality grading (kill) [10] | Amount of disease grading, disease D [11] | Mortality grading (kill), contact test [12] | Mortality grading (kill) [14] | Mortality grading (kill) [15] | Mortality grading (kill) [16] | Amount of disease grading, disease C [18] | Amount of disease grading, disease A [19] | Mortality grading (kill) [21] | Mortality grading (kill) [22] | also measured
1 | O=[N+]([O-])c1ccc(Nc2c(F)c(F)nc(F)c2F)c([N+](=O)[O-])c1 [Compound 15, 4(2,4-Dinitroanilino)-tetrafluoropyridine] | 3 (3 represents over 90% kill) | 3 (3 represents over 90% kill) | 2 (key: O represents less than 30% kill; 1 represents 30 - 49% kill; 2 represents 60 - 90% kill; 3 represents over 90% kill; C indicates a chemosterilant effect.; A indicates an antifeeding effect.) | 2 (2 represents 60 - 90% kill) | 0 (O represents less than 30% kill) | 3 (0 to 5) | 2 (2 represents 60 - 90% kill) | 0 (O represents less than 30% kill) | 0 (key: O represents less than 30% kill; 1 represents 30 - 49% kill; 2 represents 60 - 90% kill; 3 represents over 90% kill; C indicates a chemosterilant effect.; A indicates an antifeeding effect.) | 0 (O represents less than 30% kill) | 3 (0 to 5) | 2 (6 to 25) | 0 (O represents less than 30% kill) | – | Antibacterial activity grading B6 [1]: 3 (0 to 5); Antibacterial activity grading B2 [2]: 3 (0 to 5); % Kill of slugs [7]: 50%; Antibacterial activity grading B3 [8]: 3 (0 to 5); Antibacterial activity grading B1 [9]: 3 (0 to 5); Antibacterial activity grading B7 [13]: 3 (0 to 5); Antibacterial activity grading B5 [17]: 3 (0 to 5); Antibacterial activity grading B4 [20]: 3 (0 to 5)
2 | O=[N+]([O-])c1ccccc1Nc1c(Cl)c(F)nc(F)c1Cl [Compound 11, 3,5-Dichloro-2,6-difluoro-4(2-nitroanilino)pyridine] | 0 (O represents less than 30% kill) | 0 (O represents less than 30% kill) | 0 (key: O represents less than 30% kill; 1 represents 30 - 49% kill; 2 represents 60 - 90% kill; 3 represents over 90% kill; C indicates a chemosterilant effect.; A indicates an antifeeding effect.) | 0 (O represents less than 30% kill) | 0 (O represents less than 30% kill) | – | 0 (O represents less than 30% kill) | 0 (O represents less than 30% kill) | 0 (key: O represents less than 30% kill; 1 represents 30 - 49% kill; 2 represents 60 - 90% kill; 3 represents over 90% kill; C indicates a chemosterilant effect.; A indicates an antifeeding effect.) | 0 (O represents less than 30% kill) | – | – | 0 (O represents less than 30% kill) | 2 (2 represents 60 - 90% kill) | –
3 | Fc1nc(F)c(Cl)c(Nc2cc(C(F)(F)F)ccc2Br)c1Cl [Compound 13, 3,5-Dichloro-2,6-difluoro-4(2-bromo-5-trifluoromethylanilino)pyridine] | 0 (O represents less than 30% kill) | 0 (O represents less than 30% kill) | 0 (key: O represents less than 30% kill; 1 represents 30 - 49% kill; 2 represents 60 - 90% kill; 3 represents over 90% kill; C indicates a chemosterilant effect.; A indicates an antifeeding effect.) | 0 (O represents less than 30% kill) | 0 (O represents less than 30% kill) | 0 (61 to 100) | 0 (O represents less than 30% kill) | 0 (O represents less than 30% kill) | 0 (key: O represents less than 30% kill; 1 represents 30 - 49% kill; 2 represents 60 - 90% kill; 3 represents over 90% kill; C indicates a chemosterilant effect.; A indicates an antifeeding effect.) | 0 (O represents less than 30% kill) | 3 (0 to 5) | 0 (61 to 100) | 0 (O represents less than 30% kill) | 0 (O represents less than 30% kill) | abnormal growth effects in larva of mosquitos ([14]; in vivo): abnormal growth effects; Amount of disease grading, disease E [23]: 2 (6 to 25)
